The text below walks through data of article PMC4589404, “Entamoeba histolytica Dmc1 Catalyzes Homologous DNA Pairing and Strand Exchange That Is Stimulated by Calcium and Hop2-Mnd1” (PLoS ONE, 2015).

Data set [1] deals with T1, ehDmc1 (Entamoeba histolytica, UniProt C4LTR6).
T1 construct: gene EHI_050430; 334 amino acid protein with N-terminal six-histidine tag
T1 sequence (C4LTR6 1-347): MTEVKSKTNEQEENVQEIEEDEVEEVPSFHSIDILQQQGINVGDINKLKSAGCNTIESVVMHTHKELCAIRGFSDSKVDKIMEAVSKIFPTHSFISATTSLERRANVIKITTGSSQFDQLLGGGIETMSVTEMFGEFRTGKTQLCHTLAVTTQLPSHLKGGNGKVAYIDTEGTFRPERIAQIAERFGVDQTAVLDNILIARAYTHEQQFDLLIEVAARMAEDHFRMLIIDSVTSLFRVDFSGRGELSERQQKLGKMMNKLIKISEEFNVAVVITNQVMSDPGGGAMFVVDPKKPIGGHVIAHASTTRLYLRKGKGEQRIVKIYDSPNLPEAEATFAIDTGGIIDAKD
In words: D-loop assay with purified protein (IC50); also ssDNA EMSA, nuclease protection and ATPase assays. It counts as biochemical.

Substrate in data set [2]: Nc1ncnc2c1ncn2[C@@H]1O[C@H](COP(=O)(O)OP(=O)(O)OP(=O)(O)O)[C@@H](O)[C@H]1O
In words: Michaelis-Menten ATP hydrolysis assay (TLC), purified protein; Km. The following applies: Mg2+. The class given is biochemical, Entamoeba histolytica.

For `O=S(=O)(O)c1cc(N=C=S)ccc1C=Cc1ccc(N=C=S)cc1S(=O)(=O)O` [DIDS, 4,4′-diisothiocyanostilbene-2,2′-disulfonic acid], the IC50 in data set [1] is 4.5 ± 0.23 µM.

B1: ehDmc1 (Entamoeba histolytica HM-1:IMSS) (protein)
chain: T1 sequence (C4LTR6 1-347)
notes: 334 amino acid protein with N-terminal six-histidine tag
With B1, the Km in data set [2] was determined as 480 ± 50 µM.

One may read the IC50 as the midpoint of a concentration-inhibition curve. For orientation: Km means the substrate concentration at which the rate is half of its maximum.
